The subject of series [1] is BCL6 dependent GCB DLBCLs. As to the kind of experiment: GCB DLBCL tumors in vivo. The text has this:
(§1) BCL6 is also required for normal development of germinal center (GC) B-cells.

The next series deals with Ly10 DLBCL cells. Put plainly: Growth inhibition of DLBCL cells, Ly10. To be noted: Table 2, BCL-6 dependent, 48 hours. It counts as cell-based. In a few lines:
(§2)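 Seed 50,000 cells/well; add compounds at different concentrations or DMSO; incubate 48 hours; measure viability by Cell Titer Blue; express growth inhibition relative to DMSO; fit dose-response curves for GI50.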

Another series relates to mice. As to the kind of experiment: Toxicity of 1085 in mice. It counts as in vivo. To be noted: C57BL/6 mice, daily IP 50 to 150 mg/kg over 7 days. The procedure: […]. BCL6 is also required for normal development of germinal center (GC) B-cells. […]. Noteworthy, BCL6 dependent aggressive ABC DLBCLs were also sensitive to the in vitro and in vivo treatment with 1085, and even primary human ABC DLBCL samples were sensitive to the treatment with the new BCL6 inhibitor.
[…]. Five C57BL/6 mice were exposed to daily intraperitoneal (IP) administration of increasing doses of the compound ranging from 50 to 150 mg/kg over the course of 7 days, to a cumulative dose of 750 mg/kg, and another five mice were exposed to vehicle only. […] Brain, heart, lung, liver, kidney, bowel, spleen, and bone marrow tissues were examined. Complete peripheral blood counts, biochemistry and liver function tests were normal.

Series [2] deals with primary human ABC DLBCL samples. As to the kind of experiment: Primary human ABC DLBCL samples.
The next series has as its system Ly7 DLBCL cells. As to the kind of experiment: Growth inhibition of DLBCL cells, Ly7. It counts as cell-based. To be noted: Table 2; BCL-6 dependent; 48 hours. In a few lines:
as §2

The next series has as its system Ly1B50 DLBCL cells. Put plainly: Growth inhibition of DLBCL cells, Ly1B50. It counts as cell-based. To be noted: Table 2; BCL-6 independent; 48 hours. In short, it runs like this:
as §2

A further series relates to Karpas 422 DLBCL cells. As to the kind of experiment: Growth inhibition of DLBCL cells, Karpas 422. To be noted: Homo sapiens, Table 2, BCL-6 independent, 48 hours, read-out: GI50 Karpas 422. The format is cell-based. In a few lines: (§3)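 50,000 cells per well were exposed to a range of compound concentrations for 48 hours, with DMSO as control. Viability was read by Cell Titer Blue, growth inhibition expressed as percent viable cells relative to DMSO-treated cells, and GI50 taken from dose-response curves.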

The test system of a further series is Toledo DLBCL cells. Put plainly: Growth inhibition of DLBCL cells, Toledo. To be noted: Homo sapiens, Table 2, BCL-6 independent, 48 hours. It counts as cell-based. In a few lines: as §3
Series [3] in a line: Stability in administration vehicle by NMR spectroscopy. The format is physicochemical. Here is the method: First, the stability of the compound in the administration vehicle of 30% PEG-300, 5% Tween-80, and 65% dextrose 5%, was evaluated at room temperature over a period of up to 8 days by NMR spectroscopy.
The toxic effects of 1085 on mice were then examined. Five C57BL/6 mice were exposed to daily intraperitoneal (IP) administration of increasing doses of the compound ranging from 50 to 150 mg/kg over the course of 7 days, to a cumulative dose of 750 mg/kg, and another five mice were exposed to vehicle only. […] Brain, heart, lung, liver, kidney, bowel, spleen, and bone marrow tissues were examined. Complete peripheral blood counts, biochemistry and liver function tests were normal.

Series [4] can be described thus: Pharmacokinetics in vitro and in vivo.
Another series deals with germinal center. Put plainly: Germinal center formation in immunized mice. To be noted: 10 days, 100 mg/kg.
The next series relates to Ly3 DLBCL cells. As to the kind of experiment: Growth inhibition of DLBCL cells, Ly3. It counts as cell-based. To be noted: Table 2; BCL-6 dependent; 48 hours. In a few lines: as §2
A further series relates to SUDHL6 DLBCL cells. Put plainly: Growth inhibition of DLBCL cells, SUDHL6. It counts as cell-based. To be noted: Homo sapiens, SU-DHL-6; Table 2; BCL-6 dependent; 48 hours; read-out: GI50 SUDH6. In short, it runs like this: as §3
For series [5], the system named is BCL6 dependent aggressive ABC DLBCLs. Put plainly: ABC DLBCL in vitro and in vivo treatment.
Excerpt: as §1

The GI50 is the concentration that inhibits growth by half. In the case of `O=C(O)CCN1C(=O)/C(=C2/C(=O)Nc3ccc(Cl)cc32)SC1=S` [Compound 1085, (Z)-3-(5-(5-Chloro-2-oxoindolin-3-ylidene)-4-oxo-2-thioxothiazolidin-3-yl)propanoic acid], the “tumors with tumor regression” value in [1] amounted to 95%. For the same compound, the GI50 is 23.5 ± 0.2 µM in the series with Ly10 DLBCL cells; 23 ± 9 µM with Ly7 DLBCL cells; more than 40 µM in the series on Ly1B50 DLBCL cells; more than 40 µM in the series on Karpas 422 DLBCL cells; more than 40 µM in the series on Toledo DLBCL cells; more than 40 µM with Ly3 DLBCL cells. For the same compound, in the series on SUDHL6 DLBCL cells, the GI50 amounted to 14 ± 7 µM. Moreover, the “complete peripheral blood counts, biochemistry and liver function tests” value in the series with mice is given as “normal”. Further, the “toxic effects or other indicators of sickness” value in the series with mice (cumulative 750 mg/kg) is given as “No toxic effects”. Further, the “sensitivity of primary human ABC DLBCL samples” value in series [2] was “sensitive”. In addition, the stability in solution result in series [3] is “very stable in solution”. In [3] (30% PEG-300, 5% Tween-80, 65% dextrose 5%, room temperature, 8 days, NMR), the “stability of the compound in the administration vehicle” value is given as “No significant changes in the structure”. In addition, in series [4], the pharmacokinetics entry was “favorable pharmacokinetics”. The “effect on germinal center” value in the series on germinal center is “inhibited the germinal center”. The “sensitivity of ABC DLBCLs to treatment” value in series [5] is on record as “sensitive”.

These data come from patent publication US9943506B2, “BCL6 inhibitors as anticancer agents” (Cornell University, priority 2013, dated 2018).
